Reference: ChEMBL document CHEMBL2346618, “Synthesis and evaluation against hepatitis C virus of 7-deaza analogues of 2'-C-methyl-6-O-methyl guanosine nucleoside and L-Alanine ester phosphoramidates” (Bioorg Med Chem Lett, 2013)

Experiments:
Hepatitis C virus = assay: Antiviral activity against Hepatitis C virus assessed as inhibition of viral replication; type: functional, organism-based, Hepacivirus hominis
[1] = (§1) Cytotoxicity against human HuH7 cells; type: cell-based, Huh-7; conditions: HuH7 cells
Huh-7 [2] = assay: Prodrug activation in human HuH7 cell lysate assessed as formation of ((2R,3R,4R,5R)-5-(2-amino-4-methoxy-7H-pyrrolo[2,3-d]pyrimidin-7-yl)-3,4-dihydroxy-4-methyltetrahydrofuran-2-yl)methyl dihydrogen phosphate by NMR assay; type: cell-based
[3] = Prodrug activation in trizma buffer assessed as formation of (2S)-2-((((2R,3R,4R,5R)-5-(2-amino-4-methoxy-7H-pyrrolo[2,3-d]pyrimidin-7-yl)-3,4-dihydroxy-4-methyltetrahydrofuran-2-yl)methoxy)(hydroxy)phosphorylamino)propanoic acid by NMR assay in presence of carboxypeptidase Y
Huh-7 [4] = assay: Prodrug activation in human HuH7 cell lysate assessed as formation of ((2R,3R,4R,5R)-5-(2-amino-4-methoxy-7H-pyrrolo[2,3-d]pyrimidin-7-yl)-3,4-dihydroxy-4-methyltetrahydrofuran-2-yl)methyl dihydrogen phosphate after 48 hrs by NMR assay; type: cell-based; conditions: huh-7, 48 h
[5] = Prodrug activation in phosphate buffer at pH 7.4 after 4 hrs by UV analysis in presence of calf adenosine deaminase; conditions: pH 7.4, 4 h
Huh-7 [6] = assay: as §1; type: cell-based; conditions: huh-7

SMILES | EC50 (Hepatitis C virus; Hepatitis C virus) | CC50 [1] | further results
COc1nc(N)nc2c1ncn2[C@@H]1O[C@H](COP(=O)(N[C@@H](C)C(=O)OCc2ccccc2)Oc2cccc3ccccc23)[C@@H](O)[C@@]1(C)O (some centres undefined) | 0.02 µM | 11 µM | –
COc1nc(N)nc2c1ncn2[C@@H]1O[C@H](COP(=O)(N[C@@H](C)C(=O)OC2CCCCC2)Oc2cccc3ccccc23)[C@@H](O)[C@@]1(C)O (some centres undefined) | 0.03 µM | 6 µM | –
COc1nc(N)nc2c1ccn2[C@@H]1O[C@H](COP(=O)(O)O)[C@@H](O)[C@@]1(C)O | – | – | Drug metabolism (Huh-7 [2]): Active
COc1nc(N)nc2c1ccn2[C@@H]1O[C@H](COP(=O)(N[C@@H](C)C(=O)OCc2ccccc2)Oc2cccc3ccccc23)[C@@H](O)[C@@]1(C)O (some centres undefined) | 27.3 µM | 27 µM | –
COc1nc(N)nc2c1ccn2[C@@H]1O[C@H](COP(=O)(N[C@@H](C)C(=O)OC2CCCCC2)Oc2cccc3ccccc23)[C@@H](O)[C@@]1(C)O (single isomer, unassigned; fast eluting) | – | – | EC50 (Hepatitis C virus): 13.3 µM; CC50 (Huh-7 [6]): 18 µM
COc1nc(N)nc2c1ccn2[C@@H]1O[C@H](COP(=O)(N[C@@H](C)C(=O)OC2CCCCC2)Oc2cccc3ccccc23)[C@@H](O)[C@@]1(C)O (single isomer, unassigned; slow eluting) | 8.9 µM | 13 µM | –
C[C@@]1(O)[C@H](O)[C@@H](CO)O[C@H]1n1ccc2c(N)ncnc21 [BETA-2'-C-METHYL-7-DEAZA-ADENOSINE] | 0.25 µM | > 100 µM | –
COc1nc(N)nc2c1ncn2[C@@H]1O[C@H](COP(=O)(N[C@@H](C)C(=O)OCC(C)(C)C)Oc2cccc3ccccc23)[C@@H](O)[C@@]1(C)O (some centres undefined) [BMS-986094] | 0.01 µM | 6 µM | –

Now from value to molecule, other results behind:

EC50 (Hepatitis C virus; Hepatitis C virus) | SMILES | CC50 [1] | further results
12.9 µM | COc1nc(N)nc2c1ccn2[C@@H]1O[C@H](COP(=O)(N[C@@H](C)C(=O)OCC(C)(C)C)Oc2cccc3ccccc23)[C@@H](O)[C@@]1(C)O (some centres undefined) | 27 µM | Drug metabolism [3]: Active; Drug metabolism (Huh-7 [4]): Not Active
> 100 µM | COc1nc(N)nc2c1ccn2[C@@H]1O[C@H](CO)[C@@H](O)[C@@]1(C)O | > 100 µM | Stability [5]: Stable
3 µM | COc1nc(N)nc2c1ncn2[C@@H]1O[C@H](CO)[C@@H](O)[C@@]1(C)O [BETA-2'-C-METHYL-6-O-METHYL GUANOSINE] | > 100 µM | –
